Data: publication PMC11201866, “Antiproliferative effect of indeno[1,2-d]thiazolo[3,2-a]pyrimidine analogues on IL-6 mediated STAT3 and role of the apoptotic pathway in albino Wistar rats of ethyl carbamate-induced lung carcinoma: In-silico, In-vitro, and In-vivo study” (Cancer Cell International, 2024)
Read-outs that look alike come from different tables or passages of the source.

Assays:
[1] = tested on: ethyl-carbamate (EC)- induced LC; assay: In-vivo antineoplastic study, EC-induced lung carcinoma (weight, lipid profile, oxidative markers, histopathology, SEM); set-up: species or system albino Wistar rats; settings: EC-induced LC rats; for Histopathological analysis of lung tissue (H&E): 10 mg/kg for 15 days; for Weight variation (change in body weight): 10 mg/kg for 15 days (9B, 12B p.o.; 5-FU i.p.); for Serum lipid profile (TC, TG, LDL, VLDL, HDL) / Oxidative changes (SOD, GSH, ProC, TBARs): 10 mg/kg p.o. for 15 days; for Oxidative changes (SOD, GSH, ProC, TBARs): lung tissue homogenate
Method: (§1) Six-week-old experimental male albino Wistar rats (100–120 g) were procured from the animal house facility of Babu Banarasi Das Northern India Institute of Technology Lucknow and approved by the Institutional Animal Ethical Committee (CPCSEA No. 809/PO/Re/S/03/CPCSEA) with approval no. BBDNIIT/IAEC/APR/2022/06. The animal welfare protocol and experiments were performed as per the CPCSEA guidelines for laboratory animals and ethics, Department of Animal Welfare, Government of India. They were randomly distributed into five groups of eight animals each. The experimental rats were acclimated under standard research laboratory conditions with free access to standard rat chow and water ad libitum. Group 1 (NC, normal control group): 0.25% CMC (2 mL/kg, p. o.), Group 2 (CC, carcinogen control/EC-exposed group): EC (0.375 mg/kg, four i.p. injections within a gap of three weeks between each dose over twelve weeks period), Group 3 (PC, positive control group): EC + 5-FU (10 mg/kg, i.p. for 15 days after EC induced LC), Group 4 (9B): EC + Compound 9B (10 mg/kg, p.o. for 15 days after EC induced LC), and Group 5 (12B): EC + Compound 12B (10 mg/kg, p.o. for 15 days after the induction of LC). At the end of the treatment, the animals were euthanized by cervical decapitation after anesthesia using a combination of diazepam and ketamine hydrochloride (5 mg/kg, and 100 mg/kg, i.m. respectively). The lung was excised immediately, rinsed in ice-cold saline, and stored at -80 °C for further study. Serum was collected and stored for further analysis.
Change in body weight (gm) was measured on the initial and final day of the experiment, and percent (%) weight gain/loss was calculated.
Serum total cholesterol (TC), triglycerides (TG), and high-density lipoprotein (HDL) levels were measured by using lipid profile kits (Agappe Diagnostic Ltd., Kerala, India). In brief, the assay was performed according to the manufacturer’s instructions. Low-density lipoprotein (LDL) and very-low-density lipoprotein (VLDL) levels were estimated and calculated using Friedewald’s formula [24].
Biochemical parameters such as protein carbonyl (PC), superoxide dismutase (SOD), glutathione (GSH), and thiobarbituric acid reactive substances (TBARs) were estimated in 10% lung tissue homogenate using our previously standardized laboratory protocols.
Histopathological studies were conducted to determine intracellular changes in lung tissue. Tissue samples were stained with H&E (haemotoxyline and eosin) using a methodology established previously at our laboratory for histological analysis and observed under an optical microscope (Steindroff N-120, 40X).
Lung tissue samples of 2–4 mm thickness were sectioned, and the samples were prepared by fixation, washing, post-fixation, and dehydration according to the standardized procedures of our laboratory. Finally, the samples were mounted on aluminium stubs with adhesive tape and examined for morphological changes using SEM (JEOL JSM-6490LV).

albino Wistar rats = assay: Acute toxicity study (OECD 423); type: in vivo; settings: oral, 15 days, 5, 10, and 15 mg/kg; for Toxic effect: histology of lung, liver, kidney
Method: It is necessary to investigate the safety and efficacy of the synthesized compounds in vivo, which was performed as per the guidelines of the Organization for Economic Cooperation and Development guidelines 423 (OECD 423). The synthesized compounds were orally administered at doses of 5, 10, and 15 mg/kg body weight to albino Wistar rats for 15 days (n = 5), and the animals were observed every day for any toxic signs at various doses. Morphological and oxidative stress parameters were used to determine dose-related toxicity.

[2] = tested on: IL-2, IL-6, IL-10, and IL-1β; assay: Cytokine estimation (ELISA) in EC-induced LC rats; type: in vivo, albino Wistar rats; settings: 10 mg/kg p.o. for 15 days, vs CC group
Method: as §1, with “The lung was excised immediately, rinsed in ice-cold saline, and stored at -80 °C for further study. Serum was collected and stored for further analysis.” left out

[3] = Pharmacokinetic study in rat plasma using HPLC; type: in vivo, albino Wistar rats; settings: 10 mg/kg p.o.; for AUC(0-inf) / Cmax / MRT / Tmax / half-life: Wistar, po; for AUC(0-inf) / Cmax / MRT / Tmax / half-life / AUMC: rat plasma
Method: 9B and 12B compounds were orally administered at 10 mg/kg (p.o. dose obtained from acute toxicity studies) to rats, and blood was collected from the latetal tail vein at 0.083, 0.25, 0.5, 1, 2, 4, 8, 12, 16, 24, and 48 h. After collection, blood was centrifuged and plasma was separated, which was kept at -20 °C for further HPLC determination. Chromatographic separations were performed using a Shimadzu Prominence-I LC-2030 Plus equipped with HPLC and a photodiode array (PDA) detector. The mobile phase consisted of a gradient elution of 2:8, water: methanol, and a continuous flow rate of 1 mL/min in an RP-C18 column (5.0 µ particle sizes, 4.6 mm internal diameter, and 250 mm length) with different λmax of 310 and 320 nm, respectively, at 40 °C throughout the experiment. The column was washed using an elution solvent (water: methanol = 50:50) after each run, and the final output was analyzed using WinNonlin version 1.5.3 software.

[4] = tested on: Human Lung Cancer Cell Line A-549; assay: In-vitro cell cytotoxicity (SRB) assay; type: cell-based
Method: To determine the cytotoxicity potential of the synthesized compounds. All samples were sent to the ACTREC, Tata Memorial Centre, Mumbai, India. They followed the standard protocol for sample analysis of the synthesized compounds. Adriamycin (ADR) was selected as a standard at 10, 20, 40, and 80 µg/mL to screen for indeno [1, 2-d] thiazolo [3,2-a] pyrimidine analogues. GI50 growth inhibition of 50% was calculated using the [(Ti − Tz)/(C − Tz)] ×100% formula, where C, controlled growth; Tz, time zero growth; and Ti, test growth at four concentration levels in the presence of the drug.
LC50 = Concentration of drug causing 50% cell kill
TGI = Concentration of drug causing total inhibition of cell growth
GI50 = Concentration of drug causing 50% inhibition of cell growth

[5] = tested on: IL-6, STAT-3, Bax, Bcl-2, Cyt-C, Caspase-9, and Caspase-3; assay: Western blot analysis of lung samples of EC-induced LC rats; type: in vivo, albino Wistar rats; settings: 10 mg/kg p.o. for 15 days; for Expression of IL-6, STAT-3, and Bcl-2 / Expression of caspases (Caspase-3 and Caspase-9): vs CC group
Method: as §1
Protein expression levels of IL-6 (pro-inflammatory), STAT-3 (pro-inflammatory), Bax (pro-apoptotic), Bcl-2 (anti-apoptotic), Cyt-C (pro-apoptotic), Caspase-9, and Caspase-3 (pro-apoptotic/executor caspase) were assessed by immunoblotting. Proteins were electrophoresed on sodium dodecyl sulphate polyacrylamide gel (SDS-PAGE) and probed to detect molecules of interest in the mixture. The membrane was developed with enhanced chemiluminescence ECL, and images were obtained using Chemidoc XRS+ (Bio-rad).

[6] = Homo sapiens, A549 cell line, unit inferred, read-out: GI50 value

Structure (SMILES)	Histopathological analysis of lung tissue (H&E) [1]	Weight variation (change in body weight) [1] [gm]	Serum lipid profile (TC, TG, LDL, VLDL, HDL) [1]	Oxidative changes (SOD, GSH, ProC, TBARs) [1]	Antioxidant markers SOD, CAT, GSH, and TBARs values (albino Wistar rats)	Toxic effect (albino Wistar rats)	Levels of cytokine IL-1β, IL-2, IL-6, and IL-10 [2]	AUC(0-inf) [3] [µg·h/mL]	Cmax [3] [ng/mL]	MRT [3] [h]	Tmax [3] [h]	half-life [3] [h]	AUMC [3] [µg.h^2/ mL]	GI50 [4, 6] [µg/mL]	Expression of IL-6, STAT-3, and Bcl-2 [5]	Expression of caspases (Caspase-3 and Caspase-9) [5]	also measured
Clc1ccc(C2C3=C(N=C4SC=CN42)c2ccccc2C3)cc1 (stereo not drawn) [Compound 12B, 5-(4-chlorophenyl)-5,6-dihydroindeno[1,2-d]thiazolo[3,2-a]pyrimidine]	histopathological recovery of lung tissue architectures	17.52 ± 1.33	restored the alteration of the lipid profile	restoring the altered levels of SOD, GSH, ProC, and TBARs	no change	no toxic effect	significantly decreased	436 ± 8.59	40200 ± 2060	10.4 ± 1.08	4	11.5	4557.60	< 10	decreased	increased	Biological availability (in words) ([3]; rat, compared with 9B): good biological availability as compared to 9B; Expression of Bax and Cyt-C ([5]; 12B compared with 9B): higher expression with 12B treatment than with 9B treatment
COc1cccc2c1C(=O)c1c(O)c3c(c(O)c1C2=O)C[C@@](O)(C(=O)CO)C[C@@H]3O[C@H]1C[C@H](N)[C@H](O)[C@H](C)O1 [ADR, Adriamycin, reference compound]	–	–	–	–	–	–	–	–	–	–	–	–	–	–	–	–	TGI (concentration of drug causing total inhibition of cell growth) ([4]; A-549 cells, SRB assay): <10 µg/mL; GI50 ([4]; Homo sapiens, A549, A-549 cells, SRB assay, read-out: GI50 (concentration of drug causing 50% inhibition of cell growth)): < 10 µg/mL
O=c1[nH]cc(F)c(=O)[nH]1 [Compound 5-FU, 5-Fluorouracil, reference compound]	histopathological recovery of lung tissue architectures	7.21 ± 1.75	–	–	–	–	–	–	–	–	–	–	–	–	–	–	–
COc1ccc2c(c1)CC1=C2N=C2SC=CN2C1c1cc(OC)c(OC)c(OC)c1 (stereo not drawn) [Compound 9B, 8-methoxy-5-(3,4,5-trimethoxyphenyl)-5,6-dihydroindeno[1,2-d]thiazolo[3,2-a]pyrimidine]	histopathological recovery of lung tissue architectures	6.01 ± 1.08	restored the alteration of the lipid profile	restoring the altered levels of SOD, GSH, ProC, and TBARs	no change	no toxic effect	significantly decreased	288	30800 ± 1590	10.6 ± 0.99	4	7.95	3028.82	< 20	decreased	increased	LC50 ([4]; Homo sapiens, A549, A-549 cells, SRB assay, read-out: LC50 (concentration of drug causing 50% cell kill)): > 80 µg/mL
